Test results taken from paper PMC4527839, “Synergistic Activity of the Plant Defensin HsAFP1 and Caspofungin against Candida albicans Biofilms and Planktonic Cultures” (PLoS ONE, 2015).
Where a name gives a salt, the structure may show the parent alone. Read-outs that look alike come from different tables or passages of the source.

Tests used:
[1] = system: C. albicans and C. glabrata biofilms; parameters: method as in PMID 24284780; conditions: combination with caspofungin; cited from earlier work
[2] = system: C. albicans SC5314 biofilms; assay: Checkerboard assay, biofilm formation inhibition; type: cell-based; conditions: Candida albicans, CTB assay, mean ± SEM
Method: The Biofilm Inhibitory Concentration 50 value (BIC50; the minimum concentration required to reduce biofilm formation by 50% as compared to control treatment) of rHsAFP1 was determined using the following antibiofilm assay: a C. albicans SC5314 overnight culture, grown in YPD, was diluted to an optical density (600 nm) of 0.1 in RPMI 1640 medium and 100 μL of this suspension was added to the wells of a round-bottomed microtitre plate (TPP, Tradingen, Switzerland). After 1 h of adhesion at 37°C, the medium was aspirated and the biofilms were washed with 100 μL phosphate-buffered saline (PBS) to remove non-adherent cells. Fresh RPMI 1640 medium, followed by an rHsAFP1 concentration series was added to the biofilms. The DMSO concentration was similar to that in the checkerboard assays, i.e. 0.5%. Biofilms were allowed to grow for 24 h at 37°C and were subsequently washed with PBS and quantified with CellTiter-Blue (CTB; Promega, WI, USA)) by adding 100 μL of CTB diluted 1/10 in PBS to each well. After 1 h of incubation in the dark at 37°C, the fluorescence was measured with a fluorescence spectrometer (λEx/λEm: 535/590 nm). The fluorescence values of the samples were corrected by subtracting the average fluorescence value of the CTB of uninoculated wells (blank). The percentage of surviving biofilm cells was calculated relative to the control treatment (0.5% DMSO).
C. albicans biofilms or C. albicans planktonic cultures were grown as described above. A combination of rHsAFP1 and antimycotic (caspofungin or amphotericin B), two-fold diluted across the columns and rows of a 96-well plate, respectively, was added to the planktonic culture or to the biofilms. […] Synergy was determined by calculating the Fractional Inhibitory Concentration Index (FICI), in which the actual concentration of compound A (i.e. rHsAFP1) in the checkerboard experiment was used, as indicated in Tables 1–3 and 4.
(§1) Data were analysed with GraphPad Prism (GraphPad Software, Inc., CA, USA). […]

[3] = system: C. albicans SC5314 biofilms (24 hours-old); assay: Checkerboard assay, biofilm eradication; type: cell-based; conditions: Candida albicans, antimycotic alone, [rHsAFP1] 0 μM, CTB assay, mean ± SEM, n ≥ 3, read-out: BEC50 CAS or AMB
Method: The Biofilm Eradicating Concentration 50 value (BEC50; the minimum concentration required to reduce the viability of the cells in a pre-grown biofilm by 50% as compared to control treatment) of rHsAFP1 was determined using the BEC50 determination assay as described by De Cremer and co-workers. Briefly, a C. albicans SC5314 overnight culture, grown in YPD, was diluted to an optical density (600 nm) of 0.1 in RPMI 1640 medium and 100 μL of this suspension was added to the wells of a round-bottomed microtitre plate (TPP, Tradingen, Switzerland). After 1 h of adhesion, the biofilms were washed with 100 μL PBS to remove non-adherent cells, followed by addition of 100 μL RPMI 1640 medium. The biofilms were allowed to grow for 24 h at 37°C. Next, an rHsAFP1 concentration series in RPMI was added to the biofilms. […] The biofilms were incubated for another 24 h at 37°C, after which they were washed and quantified with CTB as described above.
(§2) C. albicans biofilms or C. albicans planktonic cultures were grown as described above. […] Synergy was determined by calculating the Fractional Inhibitory Concentration Index (FICI), in which the actual concentration of compound A (i.e. rHsAFP1) in the checkerboard experiment was used, as indicated in Tables 1–3 and 4.
as §1

[4] = system: C. albicans SC5314 planktonic cultures; assay: Checkerboard assay, planktonic cultures; type: cell-based; conditions: Candida albicans, antimycotic alone, [rHsAFP1] 0 μM, OD at 490 nm, mean ± SEM, n ≥ 3, read-out: MIC50 CAS or AMB
Description: To test whether rHsAFP1 is as potent as HsAFP1 purified from the seeds of coral bells, we analysed the antifungal activity of both peptides against F. culmorum, following the standard CLSI protocol M28-A2 [50], with minor modifications as previously described by Osborn and colleagues: an inoculum of approximately 10^4 spores/mL of F. culmorum was suspended in half strength PDB and added to a two-fold dilution series of rHsAFP1 in water. Seed-derived HsAFP1 was purified according to the protocol as previously described by Osborn and colleagues. […] The antifungal activity of rHsAFP1 against C. albicans was subsequently analysed according to the standard CLSI protocol M27-A3 [51] with minor modifications: an inoculum of approximately 10^6 cells/mL was suspended in RPMI-1640 medium and added to a two-fold dilution series of rHsAFP1 in water. The DMSO concentration was similar to that in the biofilm assays, i.e. 0.5% DMSO.
as §2, §1

[5] = antimycotic alone, [rHsAFP1] 0 μM, n ≥ 3, read-out: BIC50 CAS or AMB

| SMILES | fold reduction of the caspofungin BIC50 [1] | IC50 ([2]; CAS alone, [HsLin06] 0 μM, n ≥ 3, read-out: BIC50 CAS) | IC50 [2, 5] | IC50 [3] | MIC50 [4] |
| --- | --- | --- | --- | --- | --- |
| CN(C)CCOc1ccc(/C(=C(/CCCl)c2ccccc2)c2ccccc2)cc1 [toremifene citrate] | up to 20 fold |  |  |  |  |
| CC[C@H](C)C[C@H](C)CCCCCCCCC(=O)N[C@H]1C[C@@H](O)[C@@H](NCCN)NC(=O)[C@@H]2[C@@H](O)CCN2C(=O)[C@H]([C@H](O)CCN)NC(=O)[C@H]([C@H](O)[C@@H](O)c2ccc(O)cc2)NC(=O)[C@@H]2C[C@@H](O)CN2C(=O)[C@H]([C@@H](C)O)NC1=O [CAS alone, caspofungin] |  | 900 ± 50 nM | 720 ± 50 nM | 400 ± 80 nM | 0.02 ± 0.01 µM |
| C[C@@H]1[C@H](O)[C@@H](C)/C=C/C=C/C=C/C=C/C=C/C=C/C=C/[C@H](O[C@@H]2O[C@H](C)[C@@H](O)[C@H](N)[C@@H]2O)C[C@@H]2O[C@](O)(C[C@@H](O)C[C@@H](O)[C@H](O)CC[C@@H](O)C[C@@H](O)CC(=O)O[C@H]1C)C[C@H](O)[C@H]2C(=O)O [AMB alone, amphotericin B] |  |  | 1230 ± 150 nM | 1670 ± 300 nM | 0.44 ± 0.06 µM |
